In experiment [1] the test system is EO771 (Luc+OVA+) tumor organoids. Nature of the experiment: Intra-tumor infiltration of T cells in tumor organoids. The format is cell-based, mouse. The following applies: 48 h treatment, then co-culture with OT-I T cells. Here is the method: To evaluate intra-tumor infiltration of T cells, EO771 (Luc+OVA+) tumor organoids were treated with indicated drugs for 48 h, and then co-cultured with OT-I T cells. After co-culture for 48 h, the organoids with T cells inside or attached were dissociated by TrypLE Express (Thermo Fisher) into single cells and stained with APC/Cy7-conjugated anti-mouse CD8 (Biolegend) and SYTOX Blue reagent for 15 min. The CD8+ T cell proportions from tumor organoids were analyzed by flow cytometry.

For experiment [2], the system named is EO771 tumors. The experiment is described as follows: EO771 orthotopic breast tumor model in immunocompetent C57BL/6 mice. The format is in vivo. The following applies: 20 mg kg-1 intraperitoneal, 3 times/week for 2 weeks. How it is done: T cell effector function analysis: We measured cytokine and cytolytic granule production (IFNγ, GZMB and TNFα) of CD8+ T cells from mouse tumor samples and tumor organoid-T cell co-culture. Briefly, CD8+ T cells were placed into the 24-well plate at 1×10^6 cells/well, stimulated with 1 μM ionomycin and 50 ng ml-1 phorbol 12-myristate 13-acetate (PMA) (Sigma-Aldrich) for 4 h, in the presence of 5 μg ml-1 Brefeldin A (BFA), with the purpose to amplify the expression of intracellular cytokines61. The cells were stained with APC/Cy7-conjugated anti-CD8a (Biolegend) for 15 min and then fixed by 4% PFA. After washing, cells were stained with PerCP/Cy7-conjugated anti-GZMB, APC-conjugated anti-IFNγ and PE-conjugated anti-TNFα (Biolegend) for 15 min. In flow cytometric analyses, T cells stained with isotype control antibodies were used as negative controls for gating the cytokine or granule-producing cells. For T cells from tumor organoid-T cell co-culture, tumor organoids were first digested into single cells with TrypLE Express at 37° C. before APC/Cy7-conjugated anti-CD8a staining. In the IFNγ and TNFα secretion assay (Biolegend), T cells were stimulated with ionomycin and PMA without the presence of BFA. The media were collected for ELISA assay.
Immunohistochemistry (IHC) and Immunofluorescence (IF) analysis of tumor organoids: Tumor organoids were gently centrifuged at 100 rcf from organoid culture medium and then embedded in 2% agar. Tumor organoids were fixed in 4% paraformaldehyde solution for overnight at room temperature. The samples were replaced with 70% ethanol and later embedded in paraffin blocks. Paraffin sections were cut at 5 μm thickness, attached on slides, heated at 60° C. for 1 h and then overnight at 37° C. The slides were stained with hematoxylin and eosin (H&E). IHC staining follows the protocol described62. Mouse-specific antibodies for CD8α (Cell Signaling Technology, clone D4W2Z, 1:400 dilution), cleaved caspase3 (Cell Signaling Technology, clone D175, 1:400 dilution) and Ki67 (Cell Signaling Technology, clone D3B5, 1:400 dilution) were used for IHC staining. The DAB peroxidase substrate kit (Vector laboratories Inc.) was used to visualize the antibodies. For IF analysis, the sample slides were blocked 3% BSA for 40 min after hydration. The slides were stained with primary antibodies including EpCAM (Abcam, 1:400 dilution), FITC-conjugated anti-α-SMA (Genetex, 1:400 dilution) and AF594-conjugated anti-CD31 (Biolegend) for 1 h. For EpCAM staining, the slide was further stained with secondary antibody Alexa Fluor 647-conjugated anti-rabbit IgG (Biolegend, 1:200) for 40 min. The fluorescence images were captured under a Leica DM4B microscope.
Animal studies: All animal experiments were performed in accordance with the National Institutes of Health's Animal Use Guidelines and protocols approved by the Animal Care and Use Committee of Indiana University School of Medicine. To examine the tumorigenic potential of tumor organoids, tumor organoids with different sizes (diameter of 30-70, 70-150, and 150-500 μm) were orthotopically injected into fat pad of the 4th mammary gland in female C57BL/6 mice. Each mouse was injected with a total of 2×10^5 tumor cells. 5 mice were used in each group. Tumors were measured in two dimensions using a manual caliper. Tumor volume was calculated using the following formula: V=0.5×length×width×width. Tumor volume was measured every 3 days. Tumors were harvested 22 days after injection. The tumor growth, volume and weight were analyzed. To evaluate the anti-tumor effect of drugs in immunocompetent C57BL/6 mice and immunodeficient nude (NU/J) mice, 2×10^5 EO771 cells were orthotopically injected into fat pad of the 4th mammary gland in female mice. […]

Each structure is given as a SMILES string.

For `COc1ccccc1S(=O)(=O)Nc1ccc2c(c1)CN(C)C(=O)N2` [PFI-1], the “CD8+ T cell infiltration in the tumor organoids” value in experiment [1] is given as “poor T cell infiltration”. The “anti-tumor effect in animal experiments” value in experiment [2] is “no anti-tumor effect”.
